For 12 compounds, IC50 and Dmax results are on record in patent US12310975B2, “Modulators of BCL6 proteolysis and associated methods of use” (Arvinas Operations, Inc., priority 2019, dated 2025).

A value given as a limit tells only on which side of the number the result lay.

Test [1] addresses T1, BCL6 (Homo sapiens (Human), UniProt P41182). Kind of test: BCL6 TR-FRET assay (BCL6-Avitag-Biotin / BCoR-Cy5 peptide). The conditions noted are these: read-out: IC50. Type of test: binding. An outline of the steps:
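TR-FRET displacement assay: biotinylated His-SUMO-BCL6-Avitag (2 nM) pre-incubated 30 min at room temperature with compound (12-point 3-fold titration), then BCoR-Cy5 peptide (100 nM) and Eu-streptavidin (2 nM) added. Buffer: 50 mM HEPES pH 7.5, 125 mM NaCl, 0.01% Triton X, glutathione or DTT, 0.03% BSA. Read after 2 h.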

Test [2] deals with T1, BCL6. As to the kind of experiment: Immunofluorescence high content imaging of BCL6 degradation in T47D cells. It counts as cell-based. Particulars: T47D. An outline of the steps: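 Read-out is BCL6 immunofluorescence quantified by high-content imaging (10×, 4 fields per well) of T47D breast cancer cells. Cells were exposed for 3 days to degrader in an 11-point, 3-fold serial dilution reaching a final top concentration of 0.1 or 1 μM.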

On to `CNC(=O)COc1cc2cc(Nc3nc(N4CCN(CC5CCC6(CC5)CN(c5ccc7c(c5)C(=O)N(C5CCC(=O)NC5=O)C7=O)C6)CC4)ncc3Cl)ccc2n(C(C)C)c1=O` (stereo not drawn) [compound 451, 2-{[6-({5-chloro-2-[4-({2-[2-(2,6-dioxopiperidin-3-yl)-1,3-dioxo-2,3-dihydro-1H-isoindol-5-yl]-2-azaspiro[3.5]nonan-7-yl}methyl)piperazin-1-yl]pyrimidin-4-yl}amino)-2-oxo-1-(propan-2-yl)-1,2-dihydroquinolin-3-yl]oxy}-N-methylacetamide], for which the half-maximal inhibitory concentration (IC50) (usually the point on the concentration scale where inhibition reaches its midpoint) in test [1] was below 10 nM. The Dmax – broadly, the greatest extent of degradation seen – in test [2] is 50 to 70%.

Consider `CNC(=O)COc1cc2cc(Nc3nc(N4CCN(CC5CCC6(CC5)CN(c5cccc7c5C(=O)N(C5CCC(=O)NC5=O)C7=O)C6)CC4)ncc3Cl)ccc2n(C(C)C)c1=O` (stereo not drawn) [compound 452, 2-{[6-({5-chloro-2-[4-({2-[2-(2,6-dioxopiperidin-3-yl)-1,3-dioxo-2,3-dihydro-1H-isoindol-4-yl]-2-azaspiro[3.5]nonan-7-yl}methyl)piperazin-1-yl]pyrimidin-4-yl}amino)-2-oxo-1-(propan-2-yl)-1,2-dihydroquinolin-3-yl]oxy}-N-methylacetamide], for which the IC50 in test [1] is below 10 nM. This compound also gave a Dmax in test [2] of at least 70%.

On to `CNC(=O)COc1cc2cc(Nc3nc(N4CCC5(CC4)CC(OC4CCN(c6cccc(C(=O)NC7CCC(=O)NC7=O)c6F)CC4)C5)ncc3Cl)ccc2n(C(C)C)c1=O` (stereo not drawn) [compound 453, 3-[4-({7-[5-chloro-4-({3-[(methylcarbamoyl)methoxy]-2-oxo-1-(propan-2-yl)-1,2-dihydroquinolin-6-yl}amino)pyrimidin-2-yl]-7-azaspiro[3.5]nonan-2-yl}oxy)piperidin-1-yl]-N-(2,6-dioxopiperidin-3-yl)-2-fluorobenzamide], for which, in test [1], the IC50 was in the range of 10 to 50 nM. Moreover, the Dmax in test [2] is at least 70%.

Regarding `CNC(=O)COc1cc2cc(Nc3nc(N4CCN(CC5CCN(c6cccc7c6C(=O)N(C6CCC(=O)NC6=O)C7=O)CC5)CC4)ncc3Cl)ccc2n(CCOC)c1=O` (stereo not drawn) [compound 454, 2-{[6-({5-chloro-2-[4-({1-[2-(2,6-dioxopiperidin-3-yl)-1,3-dioxo-2,3-dihydro-1H-isoindol-4-yl]piperidin-4-yl}methyl)piperazin-1-yl]pyrimidin-4-yl}amino)-1-(2-methoxyethyl)-2-oxo-1,2-dihydroquinolin-3-yl]oxy}-N-methylacetamide], the IC50 in test [1] is below 10 nM. This compound also displayed a Dmax in test [2] of at least 70%.

As for `CNC(=O)COc1cc2cc(Nc3nc(N4CCC[C@H](COc5cccc6c5C(=O)N(C5CCC(=O)NC5=O)C6=O)C4)ncc3Cl)ccc2n(CCOC)c1=O` (stereo partly drawn) [compound 455, 2-{[6-({5-chloro-2-[(3S)-3-({[2-(2,6-dioxopiperidin-3-yl)-1,3-dioxo-2,3-dihydro-1H-isoindol-4-yl]oxy}methyl)piperidin-1-yl]pyrimidin-4-yl}amino)-1-(2-methoxyethyl)-2-oxo-1,2-dihydroquinolin-3-yl]oxy}-N-methylacetamide], the half-inhibitory concentration (IC50) in test [1] lay within 50 to 100 nM. Besides, the Dmax in test [2] is at least 70%.

As to `CNC(=O)COc1cc2cc(Nc3nc(N4CCC(O[C@H]5C[C@H](COc6ccc7c(c6)C(=O)N(C6CCC(=O)NC6=O)C7=O)N(C)C5)CC4)ncc3Cl)ccc2n(C(C)C)c1=O` (stereo partly drawn) [compound 458, 2-[(6-{[5-chloro-2-(4-{[(3S,5R)-5-({[2-(2,6-dioxopiperidin-3-yl)-1,3-dioxo-2,3-dihydro-1H-isoindol-5-yl]oxy}methyl)-1-methylpyrrolidin-3-yl]oxy}piperidin-1-yl)pyrimidin-4-yl]amino}-2-oxo-1-(propan-2-yl)-1,2-dihydroquinolin-3-yl)oxy]-N-methylacetamide], the IC50 in test [1] lay in the range of 50 to 100 nM. The compound also yielded a Dmax in test [2] of at least 70%.

On to `CNC(=O)COc1cc2cc(Nc3nc(N4CCC(O[C@@H]5C[C@H](Oc6ccc7c(c6)C(=O)N(C6CCC(=O)NC6=O)C7=O)CN(C)C5)CC4)ncc3Cl)ccc2n(C(C)C)c1=O` (stereo partly drawn) [compound 461, 2-[(6-{[5-chloro-2-(4-{[(3R,5S)-5-{[2-(2,6-dioxopiperidin-3-yl)-1,3-dioxo-2,3-dihydro-1H-isoindol-5-yl]oxy}-1-methylpiperidin-3-yl]oxy}piperidin-1-yl)pyrimidin-4-yl]amino}-2-oxo-1-(propan-2-yl)-1,2-dihydroquinolin-3-yl)oxy]-N-methylacetamide], for which the IC50 in test [1] lay in the range of 10 to 50 nM. This compound also had a Dmax in test [2] of 50 to 70%.

Turning to `CNC(=O)COc1cc2cc(Nc3nc(N4CCC(CN5CCC(c6cc(OC)cc(C(=O)NC7CCC(=O)NC7=O)c6F)CC5)CC4)ncc3Cl)ccc2n(C(C)C)c1=O` (stereo not drawn) [compound 462, 3-[1-({1-[5-chloro-4-({3-[(methylcarbamoyl)methoxy]-2-oxo-1-(propan-2-yl)-1,2-dihydroquinolin-6-yl}amino)pyrimidin-2-yl]piperidin-4-yl}methyl)piperidin-4-yl]-N-(2,6-dioxopiperidin-3-yl)-2-fluoro-5-methoxybenzamide], the IC50 in test [1] was at least 100 nM. The compound further showed a Dmax in test [2] of at least 70%.

Turning to `CNC(=O)COc1cc2cc(Nc3nc(N4CCC(O[C@@H]5C[C@@H](COc6ccc7c(c6)C(=O)N(C6CCC(=O)NC6=O)C7=O)N(C)C5)CC4)ncc3Cl)ccc2n(C(C)C)c1=O` (stereo partly drawn) [compound 463, 2-[(6-{[5-chloro-2-(4-{[(3R,5S)-5-({[2-(2,6-dioxopiperidin-3-yl)-1,3-dioxo-2,3-dihydro-1H-isoindol-5-yl]oxy}methyl)-1-methylpyrrolidin-3-yl]oxy}piperidin-1-yl)pyrimidin-4-yl]amino}-2-oxo-1-(propan-2-yl)-1,2-dihydroquinolin-3-yl)oxy]-N-methylacetamide], the IC50 in test [1] was 10 to 50 nM. The Dmax in test [2] is below 50%.

For `CNC(=O)COc1cc2cc(Nc3nc(N4CCN(CC5CCN(c6cc(OC)cc(C(=O)NC7CCC(=O)NC7=O)c6F)CC5)CC4)ncc3Cl)ccc2n(C)c1=O` (stereo not drawn) [compound 465, 3-[4-({4-[5-chloro-4-({1-methyl-3-[(methylcarbamoyl)methoxy]-2-oxo-1,2-dihydroquinolin-6-yl}amino)pyrimidin-2-yl]piperazin-1-yl}methyl)piperidin-1-yl]-N-(2,6-dioxopiperidin-3-yl)-2-fluoro-5-methoxybenzamide], the IC50 in test [1] is below 10 nM. The compound also had a Dmax in test [2] of 50 to 70%.

For the compound `CNC(=O)COc1cc2cc(Nc3nc(N4CCC(CN5CCN(c6cc(OC)cc(C(=O)NC7CCC(=O)NC7=O)c6F)CC5)CC4)ncc3Cl)ccc2n(C(C)C)c1=O` (stereo not drawn) [compound 466, 3-[4-({1-[5-chloro-4-({3-[(methylcarbamoyl)methoxy]-2-oxo-1-(propan-2-yl)-1,2-dihydroquinolin-6-yl}amino)pyrimidin-2-yl]piperidin-4-yl}methyl)piperazin-1-yl]-N-(2,6-dioxopiperidin-3-yl)-2-fluoro-5-methoxybenzamide], the IC50 in test [1] is below 10 nM. In test [2], this compound displayed a Dmax of 50 to 70%.

For the compound `CNC(=O)COc1cc2cc(Nc3nc(N4CCC(CN5CCC(c6cc(OC)cc(C(=O)NC7CCC(=O)NC7=O)c6F)CC5)CC4)ncc3Cl)ccc2n(C)c1=O` (stereo not drawn) [compound 467, 3-[1-({1-[5-chloro-4-({1-methyl-3-[(methylcarbamoyl)methoxy]-2-oxo-1,2-dihydroquinolin-6-yl}amino)pyrimidin-2-yl]piperidin-4-yl}methyl)piperidin-4-yl]-N-(2,6-dioxopiperidin-3-yl)-2-fluoro-5-methoxybenzamide], in test [1], the IC50 is 10 to 50 nM. The same compound yielded a Dmax in test [2] below 50%.
